This assay has as its system Plasmodium falciparum. In words: Inhibitory concentration against Plasmodium falciparum. Type of assay: functional, organism-based.

By IC50 is commonly meant the concentration that inhibits the measured activity by half. Read a high IC50 as a need for much substance.

In the case of `COC(=O)CC1CCC(CCCCCOC(=O)NCCCC[C@@H]2CCC3NC(=O)NC32)(OC)OO1` (some centres not stated), the IC50 is 910 nM.

`COC(=O)CC1CCC(CCCCCOC(=O)NCCCCNC(=O)OCCOCCOC(=O)NCCCC[C@@H]2CCC3NC(=O)NC32)(OC)OO1` (some centres not stated): the half-maximal inhibitory concentration (IC50) worked out at 570 nM.

The values above are taken from ChEMBL document CHEMBL1147473, “Synthesis of a bioprobe for elucidation of target molecule of spongean anti-malarial peroxides” (Bioorg Med Chem Lett, 2004).
